# Laboratory results as given in ChEMBL document CHEMBL1122373, “Multisubstrate adducts as potential inhibitors of S-adenosylmethionine dependent methylases: inhibition of indole N-methyltransferase by (5'-deoxyadenosyl)[3-(3-indolyl)prop-1-yl]methylsulfonium and (5'-deoxyadenosyl)[4-(3-indolyl)but-1-yl]methylsulfonium salts” (J Med Chem, 1983).
# Target: T1, Catechol O-methyltransferase (Sus scrofa, UniProt Q99028)
# T1 sequence (Q99028 whole entry): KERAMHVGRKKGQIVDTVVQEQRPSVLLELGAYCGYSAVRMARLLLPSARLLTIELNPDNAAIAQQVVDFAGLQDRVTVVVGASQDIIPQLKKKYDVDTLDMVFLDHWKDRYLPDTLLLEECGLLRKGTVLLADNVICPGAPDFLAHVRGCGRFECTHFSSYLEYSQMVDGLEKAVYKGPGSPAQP
# Assay: Inhibitory activity against catechol O-methyltransferase
# Conditions: read-out: I50
row,IC50 [mM],Compound
1,> 10,C[S+](CCCc1c[nH]c2ccccc12)C[C@H]1O[C@@H](n2cnc3c(N)ncnc32)[C@H](O)[C@@H]1O (some centres not stated)
2,10,C[S+](CCCCc1c[nH]c2ccccc12)C[C@H]1O[C@@H](n2cnc3c(N)ncnc32)[C@H](O)[C@@H]1O (some centres not stated)
